In paper PMC4992173, “Divergent synthesis and identification of the cellular targets of deoxyelephantopins” (Nature Communications, 2016):

Target: T1, PPARγ (Homo sapiens, UniProt P37231)
T1 sequence (P37231 1-505): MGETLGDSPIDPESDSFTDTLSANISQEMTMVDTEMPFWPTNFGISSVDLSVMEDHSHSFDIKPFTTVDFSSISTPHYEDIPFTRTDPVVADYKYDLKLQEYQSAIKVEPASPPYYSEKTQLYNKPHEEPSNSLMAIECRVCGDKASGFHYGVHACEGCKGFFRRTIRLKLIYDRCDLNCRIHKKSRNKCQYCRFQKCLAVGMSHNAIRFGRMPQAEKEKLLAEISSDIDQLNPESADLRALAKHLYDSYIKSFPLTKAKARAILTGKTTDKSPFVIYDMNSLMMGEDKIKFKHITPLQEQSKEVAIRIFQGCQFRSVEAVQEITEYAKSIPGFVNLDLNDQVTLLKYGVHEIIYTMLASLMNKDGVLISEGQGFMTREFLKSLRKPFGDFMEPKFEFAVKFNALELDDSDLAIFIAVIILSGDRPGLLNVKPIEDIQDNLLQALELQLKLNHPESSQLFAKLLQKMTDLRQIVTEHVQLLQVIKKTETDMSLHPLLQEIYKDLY
Assay: PPARγ enrichment from MCF7 lysates spiked with recombinant PPARγ (LC-MS/MS LFQ)
Format: binding
Details: for LFQ intensity (PPARG enriched by probe): MCF7 lysates spiked with recombinant PPARγ (30 nM), n=3
Protocol: On the basis of the reported interaction between deoxyelephantopin and PPARγ and because MCF7 cells are known to express very low levels of this protein, we investigated in a separate experiment whether deoxyelephantopin indeed covalently binds PPARγ. The recombinant transcription factor was spiked into MCF7 lysates to 30 nM final concentration and successfully enriched by the methacrylate ester probe 24c, as evidenced from LC–MS/MS-based label-free quantification (LFQ)[48]. […] To investigate whether DEP is also capable of binding to endogenous PPARγ directly in living cells, we performed a targeted competitive proteomics experiment in Caco-2, a colon cancer cell line known to express larger amounts of PPARγ[49]. The cells were treated in situ with dimethyl sulfoxide (DMSO) or 20 μM deoxyelephantopin, lysed and treated with 24c. Gratifyingly, endogenous PPARγ was successfully enriched and quantified from the DMSO-treated Caco-2 cells, whereas DEP pretreatment efficiently competed PPARγ enrichment (>95%; Fig. 7a). In yet another control experiment, we expressed hPPARγ in HeLa cells and successfully conducted a gel-based competition experiment once again using DEP as an in situ competitor and 24c-Cy3 as reporter probe (Supplementary Fig. 14).
Supplementary figure 13: LFQ quantification of PPARγ enrichment from supplemented MCF7 lysates using 10 µM of 23c or 24c as enrichment probes (n = 3). […]
was processed with MaxQuant (see below).
In situ global proteomics profiling using LC-MS/MS. Caco- ’ cells/mL) in a 6-well plate, allowed to grow to confluence and to differentiate for 28 days. The wells were washed one time with PBS and treated with either DMSO, 10 µM rosiglitazone, 50 µM T0070907 or 20 µM DEP for 24 hours. Cells were washed two times with PBS and lysates were prepared. Samples (30 µg) were denatured with 6 M urea in 50 mM NH4HCO3, reduced […]
dark. Samples were diluted to 2 M urea with 50 mM NH4HCO3, and digested with trypsin ([…] for 12 hours at 37 °C. Samples were acidified to a final concentration of 5% acetic acid, desalted over a self-packed C18 spin column and dried. Samples were analyzed by LC-MS/MS (see below) and the MS data was processed with […]
ARγ nrichment for mass spectrometry. MCF7 lysate (2 mg/ml, 0.5 mL) supplemented µ γ was treated with either 23c or 24c (10 µM, 50x stock in DMSO) for one hour at r.t., followed by click chemistry (see above). […] Samples were analyzed by LC-MS/MS (see below) and the MS data was processed with MaxQuant (see below).
LC-MS/MS analysis. Peptides were resuspended in water with 0.1% formic acid (FA) and analyzed using Proxeon EASY-nLC 1000 nano-UHPLC coupled to QExactive Plus Quadrupole-Orbitrap mass spectrometer (Thermo Scientific). […]

SMILES	PPARγ enrichment compared with probe 24c (MCF7 lysates spiked with PPARγ, 10 µM probe)	LFQ intensity (PPARG enriched by probe) (10 µM probe)	Ratio 24c/23c (LFQ intensity of PPARG) (MCF7 lysates spiked with PPARγ, 10 µM probes)
C#CCC[C@H](O)[C@H]1C(=C)C(=O)O[C@@H]1c1ccccc1 [23c]	comparable LFQ value	5.49E+09	
C#CCC[C@H](OC(=O)C(=C)C)[C@H]1C(=C)C(=O)O[C@@H]1c1ccccc1 [24c]		5.15E+09	0.94
